Measurements reported in patent US7829572B2 (Pfizer Inc, priority 2006, dated 2010).

Biological target: T1, calcium receptor (CasR) (Homo sapiens, UniProt P41180)
T1 construct: expressed in transfected cells; host or cells: HEK 293
T1 sequence (P41180 20-1078): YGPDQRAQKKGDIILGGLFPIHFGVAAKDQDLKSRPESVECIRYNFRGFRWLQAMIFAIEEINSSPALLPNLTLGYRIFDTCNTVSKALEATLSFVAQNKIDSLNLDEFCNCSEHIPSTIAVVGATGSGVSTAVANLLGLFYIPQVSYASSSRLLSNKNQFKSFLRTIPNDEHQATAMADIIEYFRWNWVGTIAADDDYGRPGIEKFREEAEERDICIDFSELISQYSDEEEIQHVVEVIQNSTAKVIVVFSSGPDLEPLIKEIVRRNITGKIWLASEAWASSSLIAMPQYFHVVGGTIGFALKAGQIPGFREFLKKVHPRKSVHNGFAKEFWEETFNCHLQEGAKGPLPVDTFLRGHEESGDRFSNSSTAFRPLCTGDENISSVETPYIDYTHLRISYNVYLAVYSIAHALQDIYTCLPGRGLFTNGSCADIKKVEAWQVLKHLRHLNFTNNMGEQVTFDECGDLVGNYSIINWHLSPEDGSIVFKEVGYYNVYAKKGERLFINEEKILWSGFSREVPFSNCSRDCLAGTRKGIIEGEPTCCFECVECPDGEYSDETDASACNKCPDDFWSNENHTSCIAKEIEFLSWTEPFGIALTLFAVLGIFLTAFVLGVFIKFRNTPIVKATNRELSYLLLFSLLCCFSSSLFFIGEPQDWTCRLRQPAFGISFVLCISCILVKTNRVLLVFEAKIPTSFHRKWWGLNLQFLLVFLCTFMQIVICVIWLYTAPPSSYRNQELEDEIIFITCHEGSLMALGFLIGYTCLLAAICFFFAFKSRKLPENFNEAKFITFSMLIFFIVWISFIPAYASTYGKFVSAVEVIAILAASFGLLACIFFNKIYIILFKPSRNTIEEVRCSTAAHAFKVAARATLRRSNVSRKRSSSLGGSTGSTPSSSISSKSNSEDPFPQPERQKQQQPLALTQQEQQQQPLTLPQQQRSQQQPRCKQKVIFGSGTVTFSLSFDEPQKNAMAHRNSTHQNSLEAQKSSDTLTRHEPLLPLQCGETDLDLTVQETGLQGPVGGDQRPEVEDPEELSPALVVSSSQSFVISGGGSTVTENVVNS
Experiment: FLIPR Assay for Evaluating the Potency and Selectivity of Test Compounds
Format: cell-based
Conditions: HEK 293 cells expressing CasR; 30 minutes pre-incubation; stimulation by 1.7 mM Ca2+; read 42 seconds after stimulation
In short: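 HEK293 cells expressing CasR, loaded with Fluo-4, washed in 10 mM HEPES, then preincubated 30 min with compound ([…] to 3 nM). Stimulated with 1.7 mM Ca2+ and fluorescence read at 42 s on FLIPR. IC50 from inhibition of the Ca2+-induced intracellular Ca2+ rise.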

IC50: 10.8 µM
Structure (SMILES): CNc1nccc2nc(-c3ccccc3O)n(CCc3ccccc3)c(=O)c12 [Example 16, 2-(2-Hydroxy-phenyl)-5-methylamino-3-phenethyl-3H-pyrido[4,3-d]pyrimidin-4-one]
